# Data taken from publication PMC11324046, “Second-generation piperazine derivatives as promising radiation countermeasures” (RSC Medicinal Chemistry, 2024).
# Columns and labels:
# Type in all cases: cell-based
# [1] = WST-1 proliferation assay, MRC-5; conditions: human, MRC-5 cells (normal lung fibroblasts), vs 0.1% DMSO control = 100%, mean ± standard deviation
# Procedure: (§1) A thorough analysis of antiproliferative activity was performed across various cell culture types representing different histotypes: leukemia (Jurkat, MOLT-4), lung adenocarcinoma (A549), colorectal adenocarcinoma (HT-29), pancreatic carcinoma (PANC-1), breast adenocarcinoma (MCF-7), osteosarcoma (SAOS-2), and one non-cancerous cell line (fetal lung fibroblasts MRC-5). The cell lines were exposed to the newly synthesized compounds at a concentration of 100 μM for 48 h in a single-dose treatment. Changes in cell proliferation compared to the vehicle 0.1% dimethyl sulfoxide (DMSO) control were determined using the WST-1 assay, which is based on mitochondrial dehydrogenase metabolic activities. […] The overall cytotoxic activity of each compound was expressed as growth percent (GP) – the mean of the proliferation of all cell lines treated with the same compound.
# (§2) Selected human tumor and non-tumor cell lines Jurkat (acute T-cell leukemia), MOLT-4 (acute lymphoblastic leukemia), A549 (lung carcinoma), HT-29 (colorectal adenocarcinoma), PANC-1 (pancreas epithelioid carcinoma), MCF-7 (breast adenocarcinoma), SAOS-2 (osteosarcoma) and MRC-5 (normal lung fibroblasts) were purchased from either American Type Culture Collection (ATCC; VA, USA) or Sigma-Aldrich (St. Louis, MO, USA) and cultured according to the provider's culture method guidelines. All cell lines were maintained at 37 °C in a humidified 5% carbon dioxide and 95% air incubator. Cells in the maximum range of either 10 passages for the adherent cell lines (A549, HT-29, PANC-1, MCF-7, SAOS-2, and MRC-5), or 20 passages for suspension cell lines (Jurkat, MOLT-4,) and in an exponential growth phase were used for this study. Screening of the antiproliferative effect and growth percent calculation were conducted as follows: each cell line was seeded at previously established optimal density (1–50 × 10^3 cells per well) in a 96-well plate (TPP, Trasadingen, Switzerland) and cells were allowed to settle overnight. Cells were treated for 48 h with compounds at a final concentration of 100 μM. At the end of the cultivation period, the WST-1 proliferation assay (Roche, Basel, Switzerland) was performed according to the manufacturer's protocol. The absorbance was measured at 440 nm using a Tecan Spark multimode microplate reader (Tecan, Mannedorf, Switzerland). Each value is the mean of three independent experiments and represents the percentage of proliferation (100% cell proliferation for 0.1% DMSO mock-treated control cells). The GP value was calculated for each compound tested. GP represents the mean of the percentage proliferation decrease of all cell lines treated with the same compound.
# [2] = WST-1 proliferation assay, A549; conditions: human, A549 cells (lung carcinoma), vs 0.1% DMSO control = 100%, mean ± standard deviation
# Procedure: as §1, §2
# [3] = system: Whole blood from healthy human donors; test: Dicentric chromosome assay (DCA); conditions: 3 Gy gamma
# Procedure: The radioprotective effect of eight compounds was assessed using the cytogenetic method of DCA. DCA is known for its high sensitivity to radiation exposure and its specificity, and is thus considered a gold standard for biological dosimetry. It is also applicable to reveal the radioprotective potential of substances, as their effect is to protect DNA from forming dicentric chromosomes after IR exposure. This assay included six newly synthesized substances as well as amifostine (WR2721) and its active form (WR1065). WR2721 and WR1065 served as benchmarks, allowing us to measure the radioprotective effect of our compounds against these well-established radioprotectors. Whole blood from healthy human donors was utilized for DCA, and it was irradiated with 3 Gy gamma radiation after exposure to the tested compounds. Each experiment included irradiated and non-irradiated controls. The experiments were conducted at two different concentrations of the substances. For the newly synthesized compounds, 100 μM and an optimal non-toxic concentration which varied between 200–1000 μM were used. […] The results were interpreted as the number of dicentric chromosomes per cell.
# To express the radioprotective effect the radioprotection factor (RF) was calculated as the […] (Table 2). RF expresses how many-fold the DC count in the sample decreased compared to the irradiated control.
# Blood samples from healthy male donors were taken in heparinized tubes, with informed consent and the approval of a local ethics committee. Blood samples (1 ml) were treated with eight different substances (WR2721, WR1065, and 1–6) in two different concentrations. Non-treated irradiated and non-treated non-irradiated controls were included. All samples were exposed to a single dose of 3 Gy of gamma radiation (at the dose rate of 0.6 Gy min^−1, using the ^60Co Chisobalt, Chirana, Prague, Czech Republic). […] The dose of 3 Gy was selected to ensure a sufficient quantity of dicentric chromosomes in lymphocytes. Immediately after irradiation, the samples were placed in a humidified atmosphere with 5% CO2 at 37 °C for 30 min. Treated and irradiated blood samples were added to T-25 cultivation flasks containing 10 ml RPMI 1640 with 20% fetal bovine serum and 2% phytohaemagglutinin (all Gibco by Thermo Fisher Scientific, Waltham, MA, USA). Colcemid at a final concentration of 0.25 μg ml^−1 (Gibco by Thermo Fisher Scientific, Waltham, MA, USA) was added to each culture tube 48 h after culture initiation. Cells were cultivated for another 2 h and then harvested.
# At the harvest time (total time 50 h), cell pellets obtained after centrifugation at 600 × g for 3 min were resuspended and treated with 10 ml of prewarmed 0.075 M solution of potassium chloride (Gibco by Thermo Fisher Scientific, Waltham, MA, USA) for 20 min. After another centrifugation, cells were treated three times with fixative solution consisting of 3 : 1 (v/v) methanol : acetic acid (penta Chemicals, Prague, Czech Republic). Fixed cells were dropped on ice-cold microscope slides, air-dried overnight, and stained with 5% Giemsa solution (P-Lab, Prague, Czech Republic) for 6 min. Prepared slides were evaluated using automated metaphase finding systems. The slides with metaphases were analyzed by Axio Imager 2 (Carl Zeiss Microscopy GmbH, Göttingen, Germany) and Metafer 4 software (MetaSystems Hard & Software GmbH, Altlußheim, Germany). At first, the images of the metaphases in lower magnification were acquired (MSearch TL mode). Following that, the images of good-quality metaphases in higher resolution were acquired (AutoCapt mode). The data obtained were analyzed manually (manual selection of good-quality metaphases and dicentric chromosome detection).
# [4] = WST-1 proliferation assay, HT-29; conditions: human, HT-29 cells (colorectal adenocarcinoma), vs 0.1% DMSO control = 100%, mean ± standard deviation
# Procedure: as §1, §2
# [5] = WST-1 proliferation assay, PANC-1; conditions: human, PANC-1 cells (pancreas epithelioid carcinoma), vs 0.1% DMSO control = 100%, mean ± standard deviation
# Procedure: as §1, §2
# [6] = WST-1 proliferation assay, Jurkat; conditions: human, Jurkat cells (acute T-cell leukemia), vs 0.1% DMSO control = 100%, mean ± standard deviation
# Procedure: as §1, §2
# [7] = 100 μM, 60 min pre-exposure, lower concentrations experiment
# [8] = 500 μM (optimal non-toxic concentration), 60 min pre-exposure
# [9] = 10 μM, 30 min pre-exposure, lower concentrations experiment
# [10] = 100 μM, 30 min pre-exposure, higher concentrations experiment
Compound,"viability at 48 h, 100 µM [1]","viability at 48 h, 100 µM [2]","RF (radioprotection factor) [3, 7]","RF (radioprotection factor) ([3]; 200 μM (optimal non-toxic concentration), 60 min pre-exposure)","viability at 48 h, 100 µM [4]","viability at 48 h, 100 µM [5]","viability at 48 h, 100 µM [6]","RF (radioprotection factor) [3, 8]","RF (radioprotection factor) [3, 9]","RF (radioprotection factor) [3, 10]"
"O=[N+]([O-])c1cc(OCC(O)CN2CCN(CCO)CC2)ccc1Cl (stereo not shown) [Compound 5, 1-(4-(2-Hydroxyethyl)piperazin-1-yl)-3-(4-chloro-3-nitrophenoxy)propan-2-ol]",98 ± 3%,109 ± 9%,1.65,1.91,95 ± 6%,100 ± 3%,85 ± 3%,–,–,–
"O=[N+]([O-])c1ccc(OCC(O)CN2CCN(CCO)CC2)c(F)c1 (stereo not shown) [Compound 3, 1-(4-(2-Hydroxyethyl)piperazin-1-yl)-3-(2-fluoro-4-nitrophenoxy)propan-2-ol]",103 ± 6%,106 ± 11%,2.43,–,94 ± 9%,90 ± 4%,92 ± 4%,4.16,–,–
"COc1cc([N+](=O)[O-])ccc1OCC(O)CN1CCN(CCO)CC1 (stereo not shown) [Compound 1, 1-(4-(2-Hydroxyethyl)piperazin-1-yl)-3-(2-methoxy-4-nitrophenoxy)propan-2-ol]",111 ± 9%,112 ± 8%,1.42,–,141 ± 42%,108 ± 3%,91 ± 2%,1.97,–,–
"NCCCNCCSP(=O)(O)O [WR2721, amifostine, reference compound]",8 ± 4%,5%,–,–,27 ± 3%,8 ± 4%,10 ± 12%,–,1.33,1.45
"OCCN1CCN(CC(O)COc2cccc(Cl)c2)CC1 (stereo not shown) [Compound 6, 1-(4-(2-Hydroxyethyl)piperazin-1-yl)-3-(3-chlorophenoxy)propan-2-ol]",97 ± 1%,99 ± 11%,2.1,–,85 ± 7%,94 ± 3%,89 ± 5%,2.69,–,–
"OCCN1CCN(CC(O)COc2ccc(F)cc2)CC1 (stereo not shown) [Compound 4, 1-(4-(2-Hydroxyethyl)piperazin-1-yl)-3-(4-fluorophenoxy)propan-2-ol]",103 ± 2%,112 ± 14%,1.65,–,99 ± 3%,97 ± 1%,100 ± 3%,–,–,–
"COc1ccc(OCC(O)CN2CCN(CCO)CC2)c([N+](=O)[O-])c1 (stereo not shown) [Compound 2, 1-(4-(2-Hydroxyethyl)piperazin-1-yl)-3-(4-methoxy-2-nitrophenoxy)propan-2-ol]",105 ± 1%,111 ± 11%,1.23,–,103 ± 3%,104 ± 3%,98 ± 3%,1.97,–,–
"NCCCNCCS [WR1065, reference compound]",3 ± 1%,3%,–,–,20 ± 2%,3 ± 1%,1%,–,1.59,1.96
